Where two headings read alike, the source gives them in different places. Ends that are not written are not given here. Peptide text beside a SMILES is read from it. * marks the point of attachment. RhodamineB = CCN(CC)c1ccc2c(-c3ccccc3C(=O)*)c3ccc(=[N+](CC)CC)cc-3oc2c1
Columns and labels:
E. coli RS218 = assay: Killing assay (CFU counting); format: cell-based, Escherichia coli; settings: E. coli RS218, 1 h, doses 2-10 µg/mL, dose-dependent
Protocol: (§1) To assess the bactericidal activity of PBP10-derived peptides and PBP10-containing nanosystems against E. coli and S. aureus bacterial strains, a killing assay based on counting colony forming units (CFU) was performed. For this purpose, E. coli and S. aureus strains were grown to mid-log phase at 37 °C, re-suspended in PBS, brought to 10^8 CFU/ml (which corresponds to 0.5 OD at a wavelength 600 nm) and diluted 1:100 to obtain sample containing approx. 10^6 CFU/mL. Bacteria were then added to PBS containing different concentrations of PBP10, RhB-PBP10 and RhB-PBP10-Cys and their nanosystems at doses of 2, 5 and 10 µg/mL. After 1 h of incubation at 37 °C, the plates were transferred to ice and suspensions were diluted 10- to 1000-fold in PBS. Then, 10 μL aliquots were spotted on agar plates for overnight culture at 37 °C in order to determine CFUs.

HaCaT cells [1] = assay: ROS formation (DFCH-DA fluorescence); format: cell-based, human; settings: 1 µg/mL LPS-stimulated HaCaT, 10 µg/mL agent, 24 h
Protocol: The generation of reactive oxygen species from stimulated HaCaT cells was measured using 2′,7′-dichlorofluorescein diacetate (DFCH-DA) as the fluorescent probe. For this purpose, 5 × 10^4 of HaCaT cells, cultured until ~ 85% confluence and incubated simultaneously with peptides or their magnetic derivatives at concentrations of 2, 5 and 10 µg/mL and with 1 µg/mL LPS/LTA or heat-inactivated bacteria for 24 h. Next, cells were washed twice with PBS, and DFCH-DA in PBS at the concentration of 20 µM was added. Fluorescence was measured for 90 min immediately after the addition of the dye at excitation/emission wavelengths of 488/535 nm.

HaCaT cells [2] = assay: Nitric oxide assay (nitrite, Griess reagent); format: cell-based, human; settings: 1 µg/mL LTA-stimulated HaCaT, 10 µg/mL agent, 24 h
Protocol: The nitric oxide assay was performed as described previously and the quantity of nitrite in the culture medium was measured as an indicator of NO production. Amounts of nitrite, a stable metabolite of NO, were measured using the Griess reagent (1% sulfanilamide and 0.1% naphthylethylenediamine dihydrochloride in 2.5% phosphoric acid). Briefly, 5 × 10^4 HaCaT cells were seeded in transparent 96-well plates and cultured until 85% confluence was reached. After that, cells were washed with PBS, and agents at final concentrations of 2, 5 and 10 µg/mL were added to each well. Simultaneously, keratinocytes were stimulated with 1 µg/mL LPS (E. coli 026:B6), 1 µg/mL LTA (from Staphylococcus aureus) or heat-inactivated suspensions of E. coli or S. aureus (~ 10^6 CFU/mL) and incubated in serum-free medium for 24 h. Next, 50 µL of cell culture medium was mixed with 50 µL of Griess reagent, incubated at room temperature for 15 min, and the absorbance at 540 nm was measured in a microplate reader. Fresh culture medium was used as a blank in every experiment.

S. aureus A1 = assay: Killing assay (CFU counting); format: cell-based, Staphylococcus aureus; settings: S. aureus A1, 1 h, doses 2-10 µg/mL, dose-dependent
Protocol: as §1

[3] = MTT viability / metabolic activity assay; format: cell-based, human; settings: human
Protocol: (§2) The viability and metabolic activity of cells were measured using a microculture tetrazolium test (MTT; 3-(4,5-dimethylthiazol-2-yl)-2,5-diphenyltetrazolium bromide) as described previously. HaCaT cells were seeded at a density of 5 × 10^4 cells/well in transparent 96-well plates and cultured until ~ 85% confluence; after that medium was replaced with serum-free medium and cells were serum starved for another 12 h. To determine the non-toxic concentrations, the peptides and their magnetic derivatives in concentrations ranging from 1 to 50 µg/mL were added to each well and incubated for 24 h at 37 °C under 5% CO2. The optical density at 490 nm was assessed after 2 h incubation of plates with MTT solution (5 mg/mL) and the addition of formazan salt in dimethyl sulfoxide (DMSO). The absorbance value obtained in cultures of control cells (with solvents alone) was taken as 100%. The average of all the experiments is shown as cell viability percentage in comparison to the control.

[4] = Fluorescence of unbound peptide after magnetic separation; format: physicochemical; settings: fluorescence relative to 1 mg/mL free peptide
Protocol: PBP10-containing nanosystems were obtained by non-covalent bonding including electrostatic interactions or chemisorption of thiol groups to the gold surface. Nanoparticles (MNP@NH2 or MNP@Au) were dispersed in PBS to obtain solutions of 10 mg/mL concentration. Then nanoparticles were diluted to the concentration of 1 mg/mL and were mixed with the appropriate amount (1:1 volume ratio) of PBP peptide or PBP modified by cysteine and rhodamine (1 mg/mL solutions in PBS buffer). Prepared solutions were incubated for 2 days (nucleation) and used for further investigations. In order to avoid the loss of agents during the preparation process, no further purification of nanosystems was performed. To evaluate the efficiency of peptide attachment, fluorescence of unbound PBP10 peptides in solutions after magnetic separation of nanosystems was measured.

HaCaT cells [5] = assay: IL-8 release (ELISA); format: cell-based, human; settings: 24 h
Protocol: In order to assess release of interleukin-8 (IL-8) from stimulated keratinocytes, 5 × 10^4 HaCaT cells were treated with agents at concentrations of 2, 5 and 10 µg/mL and stimulated with 1 µg/mL LPS/LTA. The medium from LPS/LTA-treated cells was harvested after 24 h of incubation and the level of IL-8 was evaluated using an IL-8 Human ELISA Kit (Thermo Fisher Scientific).

A549 cells = assay: Cell stiffness by atomic force microscopy (AFM) indentation; format: cell-based, human; settings: 1 µg/mL LPS 24 h, agent 5 µg/mL
Protocol: The stiffness of cells after 24 h stimulation with 1 µg/mL LPS was measured by indentation using atomic force microscopy (Nanowizard 4 Bioscience AFM, JPK Instruments, Germany). Adenocarcinomic human alveolar basal epithelial cells (A549 ATCC® CCL-185™) were cultured in high-glucose DMEM supplemented with 10% FBS at 37 °C with 5% CO2, placed on Ø 35 mm Petri dishes and allowed to attach and spread for 24 h before simultaneous stimulation with 1 µg/mL LPS (E. coli 026:B6) and treatment with 5 µg/mL of PBP10 or PBP10-based nanosystems. Immediately before the experiment, cells were placed in a CO2-independent buffer (Thermo Fisher Scientific, USA) to prevent changes in pH of the cellular environment during analysis. Elasticity measurements were taken with AFM working in force spectroscopy mode in liquid conditions, and cantilevers (ORC8, Bruker) with a spring constant of 0.1 N/m were used. From each tested cell, up to 64 force-indentation curves were collected in a grid of 8 × 8 pixels corresponding to a scan area of 10 × 10 µm with a maximal force of 2 nN. For indentation measurements, more than 1100 force-distance curves were recorded for each group from at least ten different cells. To determine the apparent Young’s modulus of different cells, force-indentation curves were fit to the Hertz contact model.

HaCaT cells [6] = assay: MTT viability / metabolic activity assay; format: cell-based, human; settings: 24 h
Protocol: as §2

CCN(CC)c1ccc2c(-c3ccccc3C(=O)N[C@@H](CCC(N)=O)C(=O)N[C@@H](CCCNC(=N)N)C(=O)N[C@@H](CC(C)C)C(=O)N[C@@H](Cc3ccccc3)C(=O)N[C@@H](CCC(N)=O)C(=O)N[C@H](C(=O)N[C@@H](CCCCN)C(=O)NCC(=O)N[C@@H](CCCNC(=N)N)C(=O)N[C@@H](CCCNC(=N)N)C(=O)O)C(C)C)c3ccc(=[N+](CC)CC)cc-3oc2c1 [RhB-PBP10, rhodamine B-QRLFQVKGRR] (RhodamineB-QRLFQVKGRR-OH; N-terminus and C-terminus assumed)
decrease of bacterial viability (E. coli RS218): more than 95% | ROS production (% of untreated stimulated control) (HaCaT cells [1]): 30.33 ± 3.31% | NO production (% of untreated stimulated control) (HaCaT cells [2]): 63.16 ± 14.01% | decrease of bacterial viability (S. aureus A1): more than 95%

CCN(CC)c1ccc2c(-c3ccccc3C(=O)N[C@@H](CCC(N)=O)C(=O)N[C@@H](CCCNC(=N)N)C(=O)N[C@@H](CC(C)C)C(=O)N[C@@H](Cc3ccccc3)C(=O)N[C@@H](CCC(N)=O)C(=O)N[C@H](C(=O)N[C@@H](CCCCN)C(=O)NCC(=O)N[C@@H](CCCNC(=N)N)C(=O)N[C@@H](CCCNC(=N)N)C(=O)N[C@@H](CS)C(=O)O)C(C)C)c3ccc(=[N+](CC)CC)cc-3oc2c1 [RhB-PBP10-Cys] (RhodamineB-QRLFQVKGRRC-OH; N-terminus and C-terminus assumed)
viability at 24 h, 10 µg/mL ([3]; 10 µg/mL, 24 h, control = 100%, read-out: viability of HaCaT cells): 80 ± 6.6% | decrease of bacterial viability (E. coli RS218): more than 95% | decrease of bacterial viability (S. aureus A1): more than 95% | % of remaining peptide (unbound) in solution after magnetic separation [4]: ≤ 5%

Lipopolysaccharide from Escherichia coli O26:B6 [LPS]
IL-8 level (HaCaT cells [5]; 1 µg/mL LPS-stimulated HaCaT): 504.9 ± 49.39 pg/mL | Young's modulus (A549 cells; indentation depth 1 µm): 3.1 ± 0.08 kPa | Young's modulus (A549 cells; indentation depth 300 nm): 4.3 ± 0.07 kPa

QRLFQVKGRR [PBP10, QRLFQVKGRR]
IC50 (HaCaT cells [6]): > 50 µg/mL | viability at 24 h, 10 µg/mL [3]: 83 to 101%

lipoteichoic acid from Staphylococcus aureus [LTA]
IL-8 level (HaCaT cells [5]; 1 µg/mL LTA-stimulated HaCaT): 749.2 ± 55.81 pg/mL

From paper PMC6359803, “Inhibition of inflammatory response in human keratinocytes by magnetic nanoparticles functionalized with PBP10 peptide derived from the PIP2-binding site of human plasma gelsolin” (Journal of Nanobiotechnology, 2019)
